Laboratory results as given in US20150335025A1 (priority 2014, published 2015).

System: Bacillus anthracis Spores
Format: cell-based, Bacillus anthracis (Ames strain)

O=S(=O)([O-])OOS(=O)(=O)[O-].[Na+].[Na+] [Klozur ™, sodium persulfate]
Decontamination effectiveness against B. anthracis, topsoil compared with AZTD: not significantly different
Inactivation of B. anthracis: complete inactivation
